≈ marks a conversion by molar mass, not a printed value.
Test system: Mycobacterium tuberculosis variant bovis
Test: Antimycobacterial activity against Mycobacterium bovis BCG Pasteur ATCC 35734 by microplate alamar blue assay
Format: functional

CSc1ccc2c(c1)N(C(=O)CN1CCN(C)CC1)c1ccccc1S2
MIC: > 64 µg/mL

Clc1ccc2c(c1)N(CCC1CCCCN1)c1ccccc1S2 (stereo unspecified)
MIC: 5.3 µg/mL (≈ 15.4 µM)

CSc1ccc2c(c1)N(CCC1CCCCN1)c1ccccc1S2 (stereo unspecified)
MIC: 8 µg/mL (≈ 22.4 µM)

CN1CCCCC1CCN1c2ccccc2Sc2ccccc21 (stereo unspecified)
MIC: 64 µg/mL (≈ 197 µM)

Clc1ccc2c(c1)N(CCCN1CCSCC1)c1ccccc1S2
MIC: > 64 µg/mL

Clc1ccc2c(c1)N(CCCN1CCN(c3ccccc3)CC1)c1ccccc1S2
MIC: > 64 µg/mL

CSc1ccc2c(c1)N(CCCN1CCN(c3ccccc3)CC1)c1ccccc1S2
MIC: > 64 µg/mL

CN1CCCCC1CCn1cnc2ccccc21 (stereo unspecified)
MIC: > 64 µg/mL

CN1CCN(CCCN2c3ccccc3Sc3ccccc32)CC1 [PERAZINE]
MIC: 64 µg/mL (≈ 189 µM)

CN1CCCCC1CCN1c2ccccc2Sc2ccc(Cl)cc21 (stereo unspecified)
MIC: 8 µg/mL (≈ 22.3 µM)

c1ccc2c(c1)ccn2CCC1CCCCN1 (stereo unspecified)
MIC: 64 µg/mL (≈ 280 µM)

c1ccc2c(c1)c1ccccc1n2CCC1CCCCN1 (stereo unspecified)
MIC: > 64 µg/mL

CSc1ccc2c(c1)N(CCC1CCCCN1C(C)C)c1ccccc1S2 (stereo unspecified)
MIC: > 64 µg/mL

NNC(=O)c1ccncc1 [ISONIAZID]
MIC: 0.063 µg/mL (≈ 0.459 µM)

CN1CCCCC1CCn1c2ccccc2c2ccccc21 (stereo unspecified)
MIC: > 64 µg/mL

CSc1ccc2c(c1)N(CCC1CCCCN1Cc1ccccc1)c1ccccc1S2 (stereo unspecified)
MIC: 8 µg/mL (≈ 17.9 µM)

CSc1ccc2c(c1)N(CCCN1CCN(C3C4CC5CC(C4)CC3C5)CC1)c1ccccc1S2 (stereo unspecified)
MIC: > 64 µg/mL

c1ccc2c(c1)Sc1ccccc1N2CCC1CCCCN1 (stereo unspecified)
MIC: > 64 µg/mL

CSc1ccc2c(c1)N(CCCN1CCN(C)CC1)c1ccccc1S2
MIC: 8 µg/mL (≈ 20.7 µM)

CSc1ccc2c(c1)N(CCC1CCCCN1C)c1ccccc1S2 (stereo unspecified) [THIORIDAZINE]
MIC: 16 µg/mL (≈ 43.2 µM)

CSc1ccc2c(c1)N(CCCN1CCN(C34CC5CC(CC(C5)C3)C4)CC1)c1ccccc1S2
MIC: 64 µg/mL (≈ 127 µM)

c1ccc(N2CCN(CCCN3c4ccccc4Sc4ccccc43)CC2)cc1
MIC: > 64 µg/mL

CCCN1CCCCC1CCN1c2ccccc2Sc2ccc(SC)cc21 (stereo unspecified)
MIC: 64 µg/mL (≈ 161 µM)

c1ccc2c(c1)ncn2CCC1CCCCN1 (stereo unspecified)
MIC: > 64 µg/mL

CSc1ccc2c(c1)N(CCCN1CCSCC1)c1ccccc1S2
MIC: > 64 µg/mL

CN1CCN(CCCn2ccc3ccccc32)CC1
MIC: > 64 µg/mL
